Literature values as cited in patent publication US12378579B2, “Method to produce the anti-microbial diterpenoid leubethanol and related serrulatane-type diterpenes” (priority 2020, dated 2025).

Tested on: multi-drug-resistant tuberculosis
Settings: pure compound from Leucophyllum frutescens; background statement

CC(C)=CCC[C@H](C)[C@@H]1CC[C@@H](C)c2c(O)cc(C)cc21 [leubethanol]
activity against multi-drug resistant tuberculosis: demonstrated activity
